Test results from patent US10208059B2, “Heterocyclic modulators of HIF activity for treatment of disease” (Board of Regents, University of Texas System, priority 2012, dated 2019).
pIC50: −log10 of the molar value.

Test system: 293T-HRE-GFP-luc cells
Assay: Cell-based reporter assay for IC50 determinations
Details: hypoxia 6 hrs (1% O2), luminescence, read-out: IC50 Classification
Protocol: Cell-Based Reporter Assay for IC50 Determinations
293T-HRE-GFP-luc cells were routinely maintained in DMEM media (high glucose version with GlutaMAX and HEPES, Gibco, catalog #10564) supplemented with 10% fetal bovine serum and 2 μg/mL puromycin (Invitrogen, catalog #A11138-03) using a humidified incubator (normoxia conditions consisting of 37° C., 5% CO2 and ambient O2).
In preparation for the reporter assay, cells were harvested and resuspended in DMEM media (high glucose version with GlutaMAX and HEPES) supplemented with 10% fetal bovine serum. Cells were inoculated into 384-well white Culturplates (Perkin Elmer catalog #6007680) at a density of 12,000 cells/well in a volume of 30 μL. The microplates were incubated overnight (approximately 17-19 hours) at 37° C. with 5% CO2 and ambient O2. Stock solutions of the test compounds were prepared in DMSO (Sigma, Catalog #D2650) and serially diluted 1:3 using DMSO. Compounds were additionally diluted (1:50) with culturemedium and 10 μL were added per well to the Culturplate. Following a 30 min. incubation under normoxia conditions, the plates were incubated in hypoxia for 6 hrs. (37° C., 5% CO2 and 1% O2). Steadylite Plus (Perkin Elmer, catalog #6016751) was then added (40 μL/well), the plates were mixed on an orbital shaker at room temperature in the dark for 15 min., and luminescence was measured using an Envision plate reader (Perkin Elmer). IC50 values were calculated using a four-parameter logistic curve fit. Results are shown below in Table 2; ND indicates no data.

| SMILES | pIC50 |
| --- | --- |
| COCCCNc1cccc(Cn2nc(-c3nc(-c4ccc(OC(F)(F)F)cc4)no3)nc2C)c1 [Example 53, N-(3-Methoxypropyl)-3-((5-methyl-3-(3-(4-(trifluoromethoxy)phenyl)-1,2,4-oxadiazol-5-yl)-1H-1,2,4-triazol-1-yl)methyl)aniline] | > 7.00 |
| Cc1nc(-c2nc(-c3ccc(OC(F)(F)F)cc3)no2)nn1Cc1cnccn1 [Example 54, 5-(5-Methyl-1-(pyrazin-2-ylmethyl)-1H-1,2,4-triazol-3-yl)-3-(4-(trifluoromethoxy)phenyl)-1,2,4-oxadiazole] | 5.00 to 6.00 |
| Cc1nc(-c2nc(-c3ccc(OC(F)(F)F)cc3)no2)nn1Cc1ccnc(N2CCOCC2)n1 [Example 55, 4-(4-((5-Methyl-3-(3-(4-(trifluoromethoxy)phenyl)-1,2,4-oxadiazol-5-yl)-1H-1,2,4-triazol-1-yl)methyl)pyrimidin-2-yl)morpholine] | > 7.00 |
| Cc1nc(-c2noc(-c3ccc(OC(F)(F)F)cc3)n2)nn1Cc1cccc(N2CCN(C)CC2)c1 [Example 56, 3-(5-Methyl-1-(3-(4-methylpiperazin-1-yl)benzyl)-1H-1,2,4-triazol-3-yl)-5-(4-(trifluoromethoxy)phenyl)-1,2,4-oxadiazole] | > 7.00 |
| Cc1nc(-c2noc(-c3ccc(OC(F)(F)F)cc3)n2)nn1Cc1cccc(N2CCOCC2)c1 [Example 57, 4-(3-((5-Methyl-3-(5-(4-(trifluoromethoxy)phenyl)-1,2,4-oxadiazol-3-yl)-1H-1,2,4-triazol-1-yl)methyl)phenyl)morpholine] | > 7.00 |
| Cc1nc(-c2noc(-c3ccc(OC(F)(F)F)cc3)n2)nn1Cc1cccc(N(C)C)c1 [Example 58, N,N-Dimethyl-3-((5-methyl-3-(5-(4-(trifluoromethoxy)phenyl)-1,2,4-oxadiazol-3-yl)-1H-1,2,4-triazol-1-yl)methyl)aniline] | 6.00 to 7.00 |
| Cc1nc(-c2nc(-c3ccc(OC(F)(F)F)cc3)no2)nn1Cc1cccc(O)c1 [Example 59, 3-((5-Methyl-3-(3-(4-(trifluoromethoxy)phenyl)-1,2,4-oxadiazol-5-yl)-1H-1,2,4-triazol-1-yl)methyl)phenol] | 6.00 to 7.00 |
| COCCOc1cccc(Cn2nc(-c3nc(-c4ccc(OC(F)(F)F)cc4)no3)nc2C)c1 [Example 60, 5-(1-{[3-(2-Methoxyethoxy)phenyl]methyl}-5-methyl-1H-1,2,4-triazol-3-yl)-3-[4-(trifluoromethoxy)phenyl]-1,2,4-oxadiazole] | > 7.00 |
| Cc1nc(-c2nc(-c3ccc(OC(F)(F)F)cc3)no2)nn1Cc1cccc(OCC(N)=O)c1 [Example 61, 2-{3-[(5-Methyl-3-{3-[4-(trifluoromethoxy)phenyl]-124-oxadiazol-5-yl}-1H-124-triazol-1-yl)methyl]phenoxy}acetamide] | > 7.00 |
| Cc1nc(-c2nc(-c3ccc(OC(F)(F)F)cc3)no2)nn1Cc1cccc(OCC(=O)N(C)C)c1 [Example 62, N N-Dimethyl-2-{3-[(5-methyl-3-{3-[4-(trifluoromethoxy)phenyl]-124-oxadiazol-5-yl}-1H-124-triazol-1-yl)methyl]phenoxy}acetamide] | > 7.00 |
| Cc1nc(-c2nc(-c3ccc(OC(F)(F)F)cc3)no2)nn1Cc1cccc(OC(C)C)c1 [Example 63, 5-(5-Methyl-1-{[3-(propan-2-yloxy)phenyl]methyl}-1H-1,2,4-triazol-3-yl)-3-[4-(trifluoromethoxy)phenyl]-1,2,4-oxadiazole] | > 7.00 |
| CCOc1cccc(Cn2nc(-c3nc(-c4ccc(OC(F)(F)F)cc4)no3)nc2C)c1 [Example 64, 5-{1-[(3-Ethoxyphenyl)methyl]-5-methyl-1H-1,2,4-triazol-3-yl}-3-[4-(trifluoromethoxy)phenyl]-1,2,4-oxadiazole] | > 7.00 |
| Cc1nc(-c2nc(-c3ccc(OC(F)(F)F)cc3)no2)nn1Cc1cccc(OCCO)c1 [Example 65, 2-{3-[(5-Methyl-3-{3-[4-(trifluoromethoxy)phenyl]-1,2,4-oxadiazol-5-yl}-1H-1,2,4-triazol-1-yl)methyl]phenoxy}ethan-1-ol] | > 7.00 |
| Cc1nc(-c2nc(-c3ccc(OC(F)(F)F)cc3)no2)nn1Cc1cccc(OCC#N)c1 [Example 66, 2-{3-[(5-Methyl-3-{3-[4-(trifluoromethoxy)phenyl]-1,2,4-oxadiazol-5-yl}-1H-1,2,4-triazol-1-yl)methyl]phenoxy}acetonitrile] | 6.00 to 7.00 |
| Cc1nc(-c2nc(-c3ccc(OC(F)(F)F)cc3)no2)nn1Cc1cccc(OCCNC(=O)OC(C)(C)C)c1 [Example 67, Tert-butyl N-(2-{3-[(5-methyl-3-{3-[4-(trifluoromethoxy)phenyl]-1,2,4-oxadiazol-5-yl}-1H-1,2,4-triazol-1-yl)methyl]phenoxy}ethyl)carbamate] | > 7.00 |
| Cc1nc(-c2nc(-c3ccc(OC(F)(F)F)cc3)no2)nn1Cc1cccc(OC2COC2)c1 [Example 68, 5-(5-Methyl-1-{[3-(oxetan-3-yloxy)phenyl]methyl}-1H-1,2,4-triazol-3-yl)-3-[4-(trifluoromethoxy)phenyl]-1,2,4-oxadiazole] | > 7.00 |
| Cc1nc(-c2nc(-c3ccc(OC(F)(F)F)cc3)no2)nn1Cc1cccc(OC2CCOCC2)c1 [Example 69, 5-(5-Methyl-1-{[3-(oxan-4-yloxy)phenyl]methyl}-1H-1,2,4-triazol-3-yl)-3-[4-(trifluoromethoxy)phenyl]-1,2,4-oxadiazole] | > 7.00 |
| Cc1nc(-c2nc(-c3ccc(OC(F)(F)F)cc3)no2)nn1Cc1cccc(OCCN)c1 [Example 70, 5-(1-{[3-(2-Aminoethoxy)phenyl]methyl}-5-methyl-1H-1,2,4-triazol-3-yl)-3-[4-(trifluoromethoxy)phenyl]-1,2,4-oxadiazole] | 6.00 to 7.00 |
| Cc1nc(-c2nc(-c3ccc(OC(F)(F)F)cc3)no2)nn1Cc1cccc(OCCCO)c1 [Example 71, 3-{3-[(5-Methyl-3-{3-[4-(trifluoromethoxy)phenyl]-1,2,4-oxadiazol-5-yl}-1H-1,2,4-triazol-1-yl)methyl]phenoxy}propan-1-ol] | > 7.00 |
| COC(C)(C)CCOc1cccc(Cn2nc(-c3nc(-c4ccc(OC(F)(F)F)cc4)no3)nc2C)c1 [Example 72, 5-(1-{[3-(3-Methoxy-3-methylbutoxy)phenyl]methyl}-5-methyl-1H-1,2,4-triazol-3-yl)-3-[4-(trifluoromethoxy)phenyl]-1,2,4-oxadiazole] | > 7.00 |
| Cc1nc(-c2nc(-c3ccc(OC(F)(F)F)cc3)no2)nn1Cc1cccc(OC2CCN(C)CC2)c1 [Example 73, 1-Methyl-4-{3-[(5-methyl-3-{3-[4-(trifluoromethoxy)phenyl]-1,2,4-oxadiazol-5-yl}-1H-1,2,4-triazol-1-yl)methyl]phenoxy}piperidine] | > 7.00 |
| Cc1nc(-c2nc(-c3ccc(OC(F)(F)F)cc3)no2)nn1Cc1cccc(OCCCN(C)C)c1 [Example 74, Dimethyl(3-{3-[(5-methyl-3-{3-[4-(trifluoromethoxy)phenyl]-1,2,4-oxadiazol-5-yl}-1H-1,2,4-triazol-1-yl)methyl]phenoxy}propyl)amine] | > 7.00 |
| Cc1nc(-c2nc(-c3ccc(OC(F)(F)F)cc3)no2)nn1Cc1cc[nH]c(=O)c1 [Example 75, 4-[(5-Methyl-3-{3-[4-(trifluoromethoxy)phenyl]-1,2,4-oxadiazol-5-yl}-1H-1,2,4-triazol-1-yl)methyl]-1,2-dihydropyridin-2-one] | 6.00 to 7.00 |
| Cc1nc(-c2nc(-c3ccc(OC(F)(F)F)cc3)no2)nn1Cc1ccn(CC(C)C)c(=O)c1 [Example 76a, 4-[(5-Methyl-3-{3-[4-(trifluoromethoxy)phenyl]-1,2,4-oxadiazol-5-yl}-1H-1,2,4-triazol-1-yl)methyl]-1-(2-methylpropyl)-1,2-dihydropyridin-2-one] | 6.00 to 7.00 |
| Cc1nc(-c2nc(-c3ccc(OC(F)(F)F)cc3)no2)nn1Cc1ccnc(OCC(C)C)c1 [Example 76b, 4-[(5-Methyl-3-{3-[4-(trifluoromethoxy)phenyl]-1,2,4-oxadiazol-5-yl}-1H-1,2,4-triazol-1-yl)methyl]-2-(2-methylpropoxy)pyridine] | 6.00 to 7.00 |
| Cc1nc(-c2nc(-c3ccc(OC(F)(F)F)cc3)no2)nn1Cc1ccc(=O)n(CC(C)C)c1 [Example 77a, 5-[(5-Methyl-3-{3-[4-(trifluoromethoxy)phenyl]-1,2,4-oxadiazol-5-yl}-1H-1,2,4-triazol-1-yl)methyl]-1-(2-methylpropyl)-1,2-dihydropyridin-2-one] | > 7.00 |
| Cc1nc(-c2nc(-c3ccc(OC(F)(F)F)cc3)no2)nn1Cc1ccc(OCC(C)C)nc1 [Example 77b, 5-[(5-Methyl-3-{3-[4-(trifluoromethoxy)phenyl]-1,2,4-oxadiazol-5-yl}-1H-1,2,4-triazol-1-yl)methyl]-2-(2-methylpropoxy)pyridine] | 6.00 to 7.00 |
| Cc1nc(-c2nc(-c3ccc(OC(F)(F)F)cc3)no2)nn1Cc1cccc(N)c1 [Example 78, 3-[(5-Methyl-3-{3-[4-(trifluoromethoxy)phenyl]-1,2,4-oxadiazol-5-yl}-1H-1,2,4-triazol-1-yl)methyl]aniline] | > 7.00 |
| Cc1nc(-c2nc(-c3ccc(OC(F)(F)F)cc3)no2)nn1Cc1cccc(S(=O)(=O)N2CCN(C)CC2)c1 [Example 79, 1-Methyl-4-{3-[(5-methyl-3-{3-[4-(trifluoromethoxy)phenyl]-1,2,4-oxadiazol-5-yl}-1H-1,2,4-triazol-1-yl)methyl]benzenesulfonyl}piperazine] | > 7.00 |
